Reference: the supplement of paper PMC11208160

test: recombinant barcode read abundance after kanamycin selection (control-corrected) (log10(CPM+1)); higher = more efficient recombination; sequences stand for … in AGTGCAGAGAAAATCGGCCAGTTTTCTCTGCCTGCAGTCCGCATGCCGT…AGATTTATGCAGCGGACTGCCTTTCTCCCAAAGTGATAAACCGGACAGTATCATGGACCGGTTTTCCCGGTAATCCGTATTTGCAAGGTTGGTTTCACT; site = the 11-nt target
In short: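 Pooled E. coli screen pairing targets with IS621 bridge RNA target-binding loops. Each oligo (promoter, target, barcode, J23119-driven first 104 bridge RNA bases) was Gibson-cloned into a vector with the remaining 73 bp and T7-inducible recombinase, then co-electroporated with a donor plasmid. Two replicates each were plated on chloramphenicol/ampicillin LB agar (control) or chloramphenicol/ampicillin/kanamycin with 0.1 mM IPTG. Recombination efficiency is recombinant-junction barcode counts as CPM, averaged, control-corrected, reported as log10(CPM+1).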
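Also: IS621 recombinase and bridge RNA in Escherichia coli cells.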

Compared with “TGAAATGCTTGGGTTCTAACCTGTTGCCT (site TGAAATGCTAG)”, “TCCACACCTTGGGTTCTAACCTGTTGCCT (site TCCACATCTAG)” is lower in “recombinant barcode read abundance (log10)” value: 0.329 for the first, 0.0345 for the second.

Going from “AACTAAGCTTGGGTTCTAACCTGTTGCCT (site GGAAGCCCTTA)” to “TAATATTCTTGGGTTCTAACCTGTTGCCT (site TAGGATTCTAG)”, the “recombinant barcode read abundance (log10)” value falls from 0.325 to 0.041.

Going from “TTACCAACTTGGGTTCTAACCTGTTGCCT (site TTACCCACTAG)” to “CCAAGCTCTTGGGTTCTAACCTGTTGCCT (site CCAAGCGCTAG)”, the “recombinant barcode read abundance (log10)” value falls from 0.629 to 0.214.

“GAGTATGCTTGGGTTCTAACCTGTTGCCT (site GATTATGCTAG)” and “GACCTACCTTGGGTTCTAACCTGTTGCCT (site GACATACCTAG)” are within 0.2 log units of each other in “recombinant barcode read abundance (log10)” value: 0.223 for the first, 0.0646 for the second.

Going from “TGTCAATCTTGGGTTCTAACCTGTTGCCT (site TGTCAAGCTAG)” to “CGGACGCCTTGGGTTCTAACCTGTTGCCT (site CGGACGTCTAG)”, the “recombinant barcode read abundance (log10)” value rises from 0.0211 to 0.25.

Compared with “AGGGAATCTTGGGTTCTAACCTGTTGCCT (site AGTGAATCTAG)”, “CGACTCCCTTGGGTTCTAACCTGTTGCGT (site CGACTCCCTAC)” is higher in “recombinant barcode read abundance (log10)” value: 0.182 for the first, 1.14 for the second.

“TGACCTTCTTGGGTTCTAACCTGTTGCCT (site TGACGTTCTAG)” and “GGCACTACTTGGGTTCTAACCTGTTGCCT (site GGCACAACTAG)” are within 0.2 log units of each other in “recombinant barcode read abundance (log10)” value: 0.0226 for the first, 0.0867 for the second.

First: CTCTAGCCTTGGGTTCTAACCTGTTGCGT (site CTCTACCCTAC)
Second: AATGCTTCTTGGGTTCTAACCTGTTGCTT (site AATGCTTCTAA)
The “recombinant barcode read abundance (log10)” value of the first is lower: 0.178 for the first, 0.398 for the second.

First: ACCCGTCCTTGGGTTCTAACCTGTTGCAG (site ACCCGTCCTCT)
Second: TACTATGCTTGGGTTCTAACCTGTTGCCT (site TACTATTCTAG)
The “recombinant barcode read abundance (log10)” value of the first is higher: 2.67 for the first, 0.187 for the second.

Going from “GTAGTCCCTTGGGTTCTAACCTGTTGCCT (site GTAGTCCCTAG)” to “CCTAAGCCTTGGGTTCTAACCTGTTGCTG (site TACCCTTCTAC)”, the “recombinant barcode read abundance (log10)” value falls from 2.06 to 0.141.

“GGAGGGTCTTGGGTTCTAACCTGTTGCTT (site TGAGGGTCTAA)” and “ATCCTTACTTGGGTTCTAACCTGTTGCCT (site AGCCTTACTAG)” are within 0.2 log units of each other in “recombinant barcode read abundance (log10)” value: 0.292 for the first, 0.156 for the second.

First: TCAGGTACTTGGGTTCTAACCTGTTGCCT (site GCAGGTACTAG)
Second: TAAGTACCTTGGGTTCTAACCTGTTGCCT (site TAAGTACCTAG)
The “recombinant barcode read abundance (log10)” value of the first is lower: 0.0652 for the first, 1.88 for the second.

“CTTCCTTCTTGGGTTCTAACCTGTTGCCT (site CTCCCTTCTAA)” and “CGAATCTCTTGGGTTCTAACCTGTTGCCT (site CGAATCCCTAG)” are within 0.2 log units of each other in “recombinant barcode read abundance (log10)” value: 0.128 for the first, 0.221 for the second.

“CGTTCTCCTTGGGTTCTAACCTGTTGCCT (site AGTTCTCCTAG)” and “ACTGGGTCTTGGGTTCTAACCTGTTGCGT (site ACATGGTCTAC)” are within 0.2 log units of each other in “recombinant barcode read abundance (log10)” value: 0.0567 for the first, 0.254 for the second.

First: CTGGTCCCTTGGGTTCTAACCTGTTGCGG (site CTGATCCCTCC)
Second: GTATCAACTTGGGTTCTAACCTGTTGCCT (site GTATCAACTAG)
The “recombinant barcode read abundance (log10)” value of the first is higher: 0.983 for the first, 0.35 for the second.

Going from “CTAAGCTCTTGGGTTCTAACCTGTTGCCT (site TTAAGCTCTAG)” to “ACACGACCTTGGGTTCTAACCTGTTGCGG (site ACAGGAGCTCC)”, the “recombinant barcode read abundance (log10)” value falls from 0.201 to 0.

First: TAGTTTCCTTGGGTTCTAACCTGTTGCGT (site TAGTATCCTAC)
Second: GAGTACCCTTGGGTTCTAACCTGTTGCCT (site GAGTACCCTAG)
The “recombinant barcode read abundance (log10)” value of the first is lower: 0.3 for the first, 1.96 for the second.

Going from “GTTGACCCTTGGGTTCTAACCTGTTGCCT (site GTTGACCCTAG)” to “AACAGTGCTTGGGTTCTAACCTGTTGCCT (site AACAGTGCTAG)”, the “recombinant barcode read abundance (log10)” value falls from 2.2 to 0.73.

“CTAATGTCTTGGGTTCTAACCTGTTGCCT (site CTAATGTCTTG)” and “GCTGTATCTTGGGTTCTAACCTGTTGCCT (site CCTGTATCTAG)” are within 0.2 log units of each other in “recombinant barcode read abundance (log10)” value: 0.0145 for the first, 0.163 for the second.

Going from “TGGATTCCTTGGGTTCTAACCTGTTGCCT (site TGGATTGCTAG)” to “TAGGCCACTTGGGTTCTAACCTGTTGCCT (site TAGGCCACTAA)”, the “recombinant barcode read abundance (log10)” value falls from 0.392 to 0.0204.

Compared with “TGAAATACTTGGGTTCTAACCTGTTGCCT (site TGAAGTACTAG)”, “TTGTGAGCTTGGGTTCTAACCTGTTGCCA (site TTGTGAGCTTG)” is higher in “recombinant barcode read abundance (log10)” value: 0 for the first, 1.1 for the second.

“TTATCCGCTTGGGTTCTAACCTGTTGCCT (site CGTAGACCTTA)” and “TGTCTAGCTTGGGTTCTAACCTGTTGCCT (site TGTCTAGCTAG)” are within 0.2 log units of each other in “recombinant barcode read abundance (log10)” value: 0.0341 for the first, 0.038 for the second.

“AGCAGTACTTGGGTTCTAACCTGTTGCTA (site AGCAGTACTTA)” and “GGACGGACTTGGGTTCTAACCTGTTGCCA (site GGTCGGACTTG)” are within 0.2 log units of each other in “recombinant barcode read abundance (log10)” value: 0.299 for the first, 0.417 for the second.

Compared with “ACTCGATCTTGGGTTCTAACCTGTTGCCT (site AGTCGATCTAA)”, “GGCACCACTTGGGTTCTAACCTGTTGCCT (site GGCACCACTAG)” is higher in “recombinant barcode read abundance (log10)” value: 0.0189 for the first, 0.722 for the second.

First: TACAGCTCTTGGGTTCTAACCTGTTGCTT (site TACTGCTCTAA)
Second: GCGGTGACTTGGGTTCTAACCTGTTGCCT (site GCGGTGACTAG)
The “recombinant barcode read abundance (log10)” value of the first is lower: 0.107 for the first, 1.48 for the second.

“CTCTCTCCTTGGGTTCTAACCTGTTGCCT (site CTCTCTTCTAG)” and “GCACCCTCTTGGGTTCTAACCTGTTGCCT (site GCACTCTCTAG)” are within 0.2 log units of each other in “recombinant barcode read abundance (log10)” value: 0.148 for the first, 0.0191 for the second.

“CACAGTACTTGGGTTCTAACCTGTTGCCT (site GACAGTACTAG)” and “GGACTATCTTGGGTTCTAACCTGTTGCCT (site GGACCATCTAG)” are within 0.2 log units of each other in “recombinant barcode read abundance (log10)” value: 0.29 for the first, 0.297 for the second.

“CTAAGCTCTTGGGTTCTAACCTGTTGCTC (site CTAAGCTCTCA)” and “GGACTATCTTGGGTTCTAACCTGTTGCCT (site GGACGATCTAG)” are within 0.2 log units of each other in “recombinant barcode read abundance (log10)” value: 0.0828 for the first, 0.011 for the second.

“GACAGACCTTGGGTTCTAACCTGTTGCCT (site CACAGACCTAG)” and “TGGCTATCTTGGGTTCTAACCTGTTGCCT (site TGGCTATCTAG)” are within 0.2 log units of each other in “recombinant barcode read abundance (log10)” value: 0.193 for the first, 0.187 for the second.

“CGTCCTCCTTGGGTTCTAACCTGTTGCAT (site CCGCCTCCTAT)” and “TGAACGTCTTGGGTTCTAACCTGTTGCCT (site TGAAGGTCTAG)” are within 0.2 log units of each other in “recombinant barcode read abundance (log10)” value: 0.00736 for the first, 0.0344 for the second.

First: TCGAGTACTTGGGTTCTAACCTGTTGCCT (site TCGAGTTCTAG)
Second: GGTCATGCTTGGGTTCTAACCTGTTGCCT (site GGTCATGCTAG)
The “recombinant barcode read abundance (log10)” value of the first is lower: 0.404 for the first, 1.11 for the second.

“ACCAAGTCTTGGGTTCTAACCTGTTGCGC (site ACCAAGTCTAC)” and “GCGCCTCCTTGGGTTCTAACCTGTTGCAT (site GCGACTCCTAT)” are within 0.2 log units of each other in “recombinant barcode read abundance (log10)” value: 0.251 for the first, 0.144 for the second.

Compared with “GAAAATCCTTGGGTTCTAACCTGTTGCCT (site GAAATTCCTAG)”, “TCCGTCTCTTGGGTTCTAACCTGTTGCCG (site TCCGTCTCTCG)” is higher in “recombinant barcode read abundance (log10)” value: 0.297 for the first, 1.13 for the second.
